Results on 44 compounds are retold here after patent publication US11292791B2 (priority 2017, dated 2022).

What is called IC50 is the concentration needed to halve the response being measured.

The test has as its target BRD4 (Homo sapiens (Human), UniProt O60885). The conditions noted are these: read-out: BRD4 IC50 (μM gmean).
Turning to `COC(=O)N1c2ccc3c(nc(CC[C@H]4CCOC4)n3[C@@H]3CCC[C@@H](C(=O)O)C3)c2CC[C@@H]1C` [Example 804], the IC50 lay in the range of 1 to 1000 µM.

Consider `COC(=O)N1c2ccc3c(nc(N(C)c4ccc(F)cc4)n3[C@H]3CC[C@H](C(=O)O)CC3)c2CC[C@@H]1C` [Example 805], for which the IC50 lay within 1 to 1000 µM.

For `COC(=O)N1c2ccc3c(nc(CC4CCCOC4)n3C3CCCC(C(=O)O)C3)c2CC[C@@H]1C` (some centres unmarked) [Example 806], the IC50 lay in the range of 1 to 1000 µM.

For the compound `COC(=O)N1c2ccc3c(nc(OCCc4ccccc4)n3[C@H]3CC[C@H](C(=O)O)CC3)c2CC[C@@H]1C` [Example 807], the IC50 lay in the range of 1 to 1000 µM.

On to `COC(=O)N1c2ccc3c(nc(OCCn4cc(Cl)cn4)n3[C@@H]3CCC[C@@H](C(=O)O)C3)c2CC[C@@H]1C` [Example 810], for which the IC50 lay in the range of 1 to 1000 µM.

`COC(=O)N1c2ccc3c(nc(C(CO)c4ccccc4)n3C3CCC(C(=O)O)CC3)c2CC[C@@H]1C` (some centres unmarked) [Example 812]: the half-inhibitory concentration (IC50) fell in the range of 1 to 1000 µM.

Take `COC(=O)N1c2ccc3c(nc(S(=O)(=O)c4ccccc4)n3[C@@H]3CCC[C@@H](C(=O)O)C3)c2CC[C@@H]1C` [Example 813]: the half-inhibitory concentration (IC50) fell in the range of 1 to 1000 µM.

In the case of `COC(=O)N1c2ccc3c(nc(S(=O)(=O)Cc4ccccc4)n3[C@@H]3CCC[C@@H](C(=O)O)C3)c2CC[C@@H]1C` [Example 814], the half-inhibitory concentration (IC50) lay in the range of 1 to 1000 µM.

`COC(=O)N1c2ccc3c(nc(Cc4nccc(C)n4)n3[C@@H]3CCC[C@@H](C(=O)O)C3)c2CC[C@@H]1C` [Example 820]: the half-inhibitory concentration (IC50) lay in the range of 1 to 1000 µM.

Turning to `C/C=C(/Oc1ccccc1)c1nc2c3c(ccc2n1[C@H]1CC[C@H](C(=O)O)CC1)N(C(=O)OC)[C@@H](C)CC3` [Example 821], the half-maximal inhibitory concentration (IC50) was in the range of 1 to 1000 µM.

`COC(=O)N1c2ccc3c(nc(C4(Oc5cnccn5)CC4)n3[C@H]3CC[C@H](C(=O)O)CC3)c2CC[C@@H]1C` [Example 823]: the IC50 was in the range of 1 to 1000 µM.

Take `COC(=O)N1c2ccc3c(nc(C(C)Cn4ccc(C)n4)n3C3CCC(C(=O)O)CC3)c2CC[C@@H]1C` (some centres unmarked) [Example 824]: the IC50 fell in the range of 1 to 1000 µM.

On to `COC(=O)N1c2ccc3c(nc(C(C)Cn4ccc(Cl)n4)n3C3CCCC(C(=O)O)C3)c2CC[C@@H]1C` (some centres unmarked) [Example 827], for which the IC50 was 1 to 1000 µM.

In the case of `COC(=O)N1c2ccc3c(nc(Cc4ncc(Cl)cn4)n3[C@@H]3CCC[C@@H](C(=O)O)C3)c2CC[C@@H]1C` [Example 828], the IC50 fell in the range of 1 to 1000 µM.

As to `COC(=O)N1c2ccc3c(nc(CC(C(=O)O)c4ccc(C)cc4)n3C3CCCOC3)c2CC[C@@H]1C` (some centres unmarked) [Example 829], the IC50 is 1 to 1000 µM.

`COC(=O)N1c2ccc3c(nc(Nc4ccc(Cl)cc4)n3[C@@H]3CCC[C@@H](C(=O)O)C3)c2CC[C@@H]1C` [Example 831]: the IC50 lay in the range of 1 to 1000 µM.

Take `COC(=O)N1c2ccc3c(nc(C(C)Oc4cnccn4)n3C3CCC(C(=O)O)CC3)c2CC[C@@H]1C` (some centres unmarked) [Example 833]: the concentration for half-maximal inhibition (IC50) is 1 to 1000 µM.

Consider `COC(=O)N1c2ccc3c(nc(C(C)Cn4cc(C)cn4)n3C3CCS(=O)(=O)C3)c2CC[C@@H]1C` (some centres unmarked) [Example 834], for which the IC50 is 1 to 1000 µM.

In the case of `COC(=O)[C@@H]1CCC[C@@H](n2c(Cc3ccccc3)nc3c4c(ccc32)N(C(=O)OC)[C@@H](C)CC4)C1` [Example 840], the half-inhibitory concentration (IC50) lay within 1 to 1000 µM.

As for `COC(=O)N1c2ccc3c(nc(Nc4ccccc4)n3[C@H]3CC[C@H](C(=O)O)CC3)c2CC[C@@H]1C` [Example 843], the half-inhibitory concentration (IC50) lay within 1 to 1000 µM.

Take `COC(=O)N1c2ccc3c(nc(C(C)Cn4cc(C)cn4)n3C3CCS(=O)(=O)C3)c2CC[C@@H]1C` (some centres unmarked) [Example 844]: the IC50 fell in the range of 1 to 1000 µM.

Turning to `COC(=O)N1c2ccc3c(nc(CC(C(=O)O)c4ccc(C)c(F)c4)n3C3CCCOC3)c2CC[C@@H]1C` (some centres unmarked) [Example 845], the concentration for half-maximal inhibition (IC50) lay in the range of 1 to 1000 µM.

In the case of `COC(=O)N1c2ccc3c(nc(Nc4ccc(OC)cc4F)n3[C@@H]3CCC[C@@H](C(=O)O)C3)c2CC[C@@H]1C` [Example 846], the IC50 lay within 1 to 1000 µM.

In the case of `COC(=O)N1c2ccc3c(nc(CC(C(=O)O)c4ccccc4)n3-c3ccc(OC)cc3)c2CC[C@@H]1C` (some centres unmarked) [Example 849], the IC50 fell in the range of 1 to 1000 µM.

For the compound `COC(=O)N1c2ccc3c(nc(Nc4ccc(OC)cc4F)n3[C@H]3CC[C@H](C(=O)O)CC3)c2CC[C@@H]1C` [Example 851], the IC50 was 1 to 1000 µM.

On to `COC(=O)N1c2ccc3c(nc(CC(C(=O)O)c4cccc5ccccc45)n3C3CCCOC3)c2CC[C@@H]1C` (some centres unmarked) [Example 852], for which the IC50 fell in the range of 1 to 1000 µM.

Take `COC(=O)N1c2ccc3c(nc(C4(c5cnccn5)CC4)n3[C@@H]3CCC[C@@H](C(=O)O)C3)c2CC[C@@H]1C` [Example 856]: the IC50 was 1 to 1000 µM.

For the compound `COC(=O)N1c2ccc3c(nc(Cc4ccc(N5CCCC5=O)cc4)n3[C@@H]3CCC[C@@H](C(=O)O)C3)c2CC[C@@H]1C` [Example 858], the 50% inhibitory concentration (IC50) fell in the range of 1 to 1000 µM.

Regarding `COC(=O)N1c2ccc3c(nc(C(C)Cn4cccn4)n3C3CCCS(=O)(=O)C3)c2CC[C@@H]1C` (some centres unmarked) [Example 860], the IC50 fell in the range of 1 to 1000 µM.

With `COC(=O)N1c2ccc3c(nc(C(C)Cn4cc(C(F)F)cn4)n3C3CCCC(C(=O)O)C3)c2CC[C@@H]1C` (some centres unmarked) [Example 862], the IC50 was in the range of 1 to 1000 µM.

For `COC(=O)N1c2ccc3c(nc(CC4CCOCC4)n3[C@@H]3CCC[C@@H](C(=O)O)C3)c2CC[C@@H]1C` [Example 863], the concentration for half-maximal inhibition (IC50) fell in the range of 1 to 1000 µM.

With `COC(=O)N1c2ccc3c(nc(C(C)Cc4cnn(C)c4)n3C3CCCC(C(=O)O)C3)c2CC[C@@H]1C` (some centres unmarked) [Example 867], the IC50 was 1 to 1000 µM.

Consider `COC(=O)N1c2ccc3c(nc(CC(C(=O)O)c4cccc(C(F)F)c4)n3C3CCCOC3)c2CC[C@@H]1C` (some centres unmarked) [Example 868], for which the IC50 was 1 to 1000 µM.

In the case of `COC(=O)N1c2ccc3c(nc(CC(C(=O)O)c4ccc5ccccc5c4)n3C3CCCOC3)c2CC[C@@H]1C` (some centres unmarked) [Example 870], the 50% inhibitory concentration (IC50) was in the range of 1 to 1000 µM.

Consider `COC(=O)N1c2ccc3c(nc(CCn4ccccc4=O)n3[C@@H]3CCC[C@@H](C(=O)O)C3)c2CC[C@@H]1C` [Example 871], for which the IC50 was 1 to 1000 µM.

With `COC(=O)N1c2ccc3c(nc(CC(C(=O)O)c4ccc(C)cc4)n3C3CCCOC3)c2CC[C@@H]1C` (some centres unmarked) [Example 872], the IC50 was 1 to 1000 µM.

For `COC(=O)N1c2ccc3c(nc(Nc4ccc(F)cc4)n3[C@@H]3CCC[C@@H](C(=O)O)C3)c2CC[C@@H]1C` [Example 876], the IC50 lay in the range of 1 to 1000 µM.

As for `COC(=O)N1c2ccc3c(nc(C(C)Cn4cccn4)n3C3CCCC(C(=O)O)C3)c2CC[C@@H]1C` (some centres unmarked) [Example 878], the IC50 lay in the range of 1 to 1000 µM.

Regarding `COC(=O)N1c2ccc3c(nc(Nc4ccc(F)cc4)n3[C@H]3CC[C@H](C(=O)O)CC3)c2CC[C@@H]1C` [Example 880], the concentration for half-maximal inhibition (IC50) was in the range of 1 to 1000 µM.

As to `COC(=O)N1c2ccc3c(nc(S(=O)(=O)Cc4ccccc4)n3[C@H]3CC[C@H](C(=O)O)CC3)c2CC[C@@H]1C` [Example 882], the IC50 is 1 to 1000 µM.

For the compound `COC(=O)N1c2ccc3c(nc(CC(C(=O)O)c4cccc(C)c4)n3C3CCCOC3)c2CC[C@@H]1C` (some centres unmarked) [Example 885], the 50% inhibitory concentration (IC50) lay within 1 to 1000 µM.

Take `COC(=O)N1c2ccc3c(nc(C(C)Oc4cnccn4)n3C3CCC(C(=O)O)CC3)c2CC[C@@H]1C` (some centres unmarked) [Example 887]: the IC50 was 1 to 1000 µM.

Regarding `COC(=O)N1c2ccc3c(nc(CC(C(=O)O)c4ccc(C(C)C)cc4)n3C3CCCOC3)c2CC[C@@H]1C` (some centres unmarked) [Example 888], the IC50 fell in the range of 1 to 1000 µM.

Regarding `COC(=O)N1c2ccc3c(nc(CC(C(=O)O)c4ccccc4)n3C3COCC(F)(F)C3)c2CC[C@@H]1C` (some centres unmarked) [Example 891], the IC50 lay within 1 to 1000 µM.
